From publication PMC6123711, “Conformational signatures in β-arrestin2 reveal natural biased agonism at a G-protein-coupled receptor” (Communications Biology, 2018)

B1: Spexin (peptide, UniProt Q9BT56 27-116, looked up)
Spexin: APQRLLERRNWTPQAMLYLKGAQGRRFISDQSRRKDLSDRPLPERRSPNPQLLTIPEAATILLASLQKSPEDEEKNFDQTRFLEDSLLNW
modifications: Spexin
notes: endogenous peptide ligand of Galr2 and Galr3; synthesized by AnyGen

Key:
Galr2 = assay: SRE-Luc gene reporter assay; assay type: cell-based, human; settings: for Log(τ/KA), SRE-Luc: HEK293 cells, Galr2, 6 h ligand treatment, operational model (Eq. 2)
Excerpt: Galr2 is primarily coupled to the Gαq-protein which activates the phospholipase C/protein kinase C pathway for inositol phosphate production. We measured G-protein activation in HEK293 cells transiently expressing Galr2, using the serum response element-luciferase (SRE-Luc) gene reporter assay[10],[37] and for a more specific monitoring of Gαq-protein activity we also measured total inositol phosphate production. […] However, some differences were observed between SRE-Luc activity and total inositol phosphate production in the rank order of potency of the tested ligands. […] Phosphorylation of extracellular signal-regulated protein kinases 1 and 2 (pErk1/2) is either G-protein or β-arrestin dependent. To distinguish Gαq-protein- and β-arrestin1/2-dependent Erk1/2 signaling, we examined ligand-stimulated Erk1/2 phosphorylation in three different HEK293 cell lines, wild type, Gαq/11-knockout, and β-arrestin1/2-knockout cells. All three ligands induced high levels of Erk1/2 phosphorylation dose-dependently in wild-type HEK293 cells.
Fig. 5 Galr2 agonists display different Gαq-protein-dependent signaling and pErk1/2. The ability of increasing concentrations of agonists to induce a SRE-Luc activity and b total inositol phosphate production. c Representative western blot showing ligand-induced phosphorylation of Erk1/2 from wild-type (HEK293 WT), Gαq/11-, and β-arrestin1/2-knockout HEK293 cells expressing Galr2 (original blots are presented in Supplementary Figure 4). pErk1/2 and total Erk levels were determined at 5 min after stimulation of different concentrations of three ligands. Western blot band intensities corresponding to each concentration were quantified using Image studio ^TM Software. […] Data are the mean ± s.e.m. values of two independent experiments
(§1) Quantification of bias between each pathway was performed using Galanin as a reference ligand. All incubations for the different signaling assays were performed in serum-free medium to prevent peptide degradation.
One day before transfection, cells were seeded in 48-well plates at a density of 2.5 × 10^4 cells per well. A mixture containing 75 ng SRE-Luc reporter construct, 75 ng expression plasmid, and 0.3 μl Lipofectamine 2000 (Invitrogen) was prepared and added to each well, according to the manufacturer’s instructions. The cells were then maintained in serum-free DMEM for 16–18 h before exposure to the ligands. Approximately 48 h after transfection, the cells were treated with the respective ligands for 6 h. The cells were then lysed using 100 μl lysis buffer. The luciferase activity in 50 μl cell extract was determined using a luciferase assay system, following the standard protocol for the Synergy 2 Multi-Mode Microplate Reader Biotek.

[1] = tested on: Galr2–β-arrestin2–clathrin complex; assay: β-arrestin2–clathrin interactions (NanoBit); assay type: cell-based, human; settings: for Log(τ/KA), Clathrin:β-arrestin2 / formation of Galr2–β-arrestin2–clathrin complex: data at 5 min after agonist; for Log(τ/KA), Clathrin:β-arrestin2: operational model (Eq. 2); for Log(τ/KA), Clathrin:β-arrestin2 / ΔLog(τ/KA), Clathrin:β-arrestin2: mean ± s.e.m. of three experiments in triplicate; for formation of Galr2–β-arrestin2–clathrin complex: dose–response, normalized to Galanin; for ΔLog(τ/KA), Clathrin:β-arrestin2: normalized to Galanin (reference agonist), in parenthesis
Excerpt: The interaction between β-arrestin2 and clathrin induced by the activation of Galr2 was examined using the NanoBit technology. We measured real-time association of the protein complex Galr2–β-arrestin2–clathrin. We constructed β-arrestin2 and clathrin subunit A tagged with LgBit or SmBit at the C or N termini and screened eight different plasmid combinations, out of which only one combination (β-arrestin2–LgBit:SmBit–clathrin) responded to ligand stimulation (Fig. 3, Supplementary Fig. 3). Before ligand stimulation, Galr2, β-arrestin2, and clathrin were not in close proximity and so the basal luminescence was very low. […] A time course experiment was initially performed to determine the time at which the maximal increase in luminescence occurred following agonist stimulation. All ligands except for Fmoc-dA4-dQ14 induced different fold increase in luminescence immediately after ligand treatment (Fig. 3b). […] Galanin- and Spexin-induced increases in luminescence were attenuated by pretreatment of cmpd101, a G-protein-coupled receptor kinase 2/3 (GRK2/3) inhibitor, indicating contribution of GRK2/3 in the formation of Galr2–β-arrestin2–clathrin complex (Fig. 3).
The arrows indicate the time when the cells were treated with different ligands. […] The results are expressed as mean ± s.e.m. of three experiments performed in triplicate. Each triplicate was averaged before calculating the s.e.m.
as §1
One day before transfection, cells were seeded in 96-well plates at a density of 2.5 × 10^4 cells per well. A mixture containing 35 ng β-arrestin construct containing the LgBit or SmBit, 35 ng clathrin subunit A containing one of the two domains of Nluc and 30 ng untagged receptor, and 0.2 μl Lipofectamine 2000 (Invitrogen) was prepared and added to each well. We followed the assay manufacturer’s instructions and tested eight β-arrestin-clathrin plasmid combinations. In only one plasmid combination we were able to observe luminescent signal and it was chosen for further experiments. At 24 h post transfection, medium was aspirated and replaced with 100 μl OPTIMEM at room temperature. After a 10-min incubation, 25 μl substrate (furimazine) was added and the luminescence was monitored once every minute for 10 min. Then, 10 μl ligand was added to each well and the luminescence values were recorded immediately and once every minute for 1 h (Synergy 2 Multi-Mode Microplate Reader BioTek).

[2] = mean ± s.e.m. of three experiments in triplicate

Molecule	Log(τ/KA), SRE-Luc (Galr2; [2])	ΔLog(τ/KA), SRE-Luc (Galr2; normalized to Galanin (reference agonist), in parenthesis, mean ± s.e.m. of three experiments in triplicate)	Log(τ/KA), Clathrin:β-arrestin2 [1]	formation of Galr2–β-arrestin2–clathrin complex [1]	ΔLog(τ/KA), Clathrin:β-arrestin2 [1]	efficacy in SRE-Luc assay (Galr2; HEK293 cells transiently expressing Galr2)
Galanin [reference compound]	4.80±0.007	0.00 ± 0.007	8.00 ± 0.18	highest response	0.00 ± 0.20	–
B1	4.95±0.04	–	6.22 ± 0.10	lower potency and efficacy than Galanin	−1.80 ± 0.10	substantially higher efficacy
